The record followed here is patent US11045519B2, “Arginine-rich polypeptide compositions and methods of using same” (UNM Rainforest Innovations, priority 2017, dated 2021).

What all share (type): cell-based
Test [1] deals with HPV16 PsVs. In words: Dissociation of cell-bound HPV16 PsVs from HaCaT cells (L1 immunoblot). To be noted: 3 μM added to HPV-bound HaCaT cells, 1 h 4° C. On the procedure:
(A) HPV16 PsVs were bound to HaCaT cells (one hour at 4° C.), before the addition of […]. After a one-hour incubation at 4° C., unbound virus was washed out, cells were lysed and analyzed for the content of HPV L1 protein. (B) HaCaT cells were exposed to HPV 16 PsV at 4° C. in the absence of polyR, simultaneously with polyR (0 h), or one hour after polyR treatment (+1 h). After extensive washing with PBS, cells were lysed and analyzed for the content of HPV16 L1 protein.
FIG. 19. […] HPV16 PsVs were bound to HaCaT cells (one hour in cold), before the addition of 5 μM PrS. After a one-hour incubation at 4° C., unbound virus was washed out, cells were lysed, and HPV L1 protein content was measured as described in FIG. 16.
To determine whether polyR could cause HPV16 dissociation from cells, HPV16 PsVs were bound to HaCaT cells for one hour at 4° C. After washing away unbound virus, HPV-bound cells were incubated with 3 μM polyR for one hour at 4° C.; control cells were untreated. Cells were lysed and analyzed for HPV L1 protein content. […]
The post-attachment inhibitory effects of PrS could be due the displacement of capsids from the cell surface. […] After a one-hour incubation at 4° C., unbound virus was washed out, cells were lysed, and the HPV L1 protein content was analyzed.

Test [2] deals with HPV16 PsVs. Put plainly: HPV16 PsV binding to CHO mutant cells (L1 immunoblot). To be noted: 3 μM, 30 min pre-treatment. How it is done: FIG. 7. HPV binding and infection of CHO mutant cells in the presence of polyR. CHO mutant pgsA-745 cells (GAG deficient) and CHO mutant pgsD-677 cells (HS deficient) were grown in Ham's F12 medium supplemented with 10% fetal bovine serum and 1% Glutamax (Invitrogen, Thermo Fisher Scientific, Inc., Carlsbad, Calif.). (A) Cells were incubated with 3 μM polyR in the medium for 30 minutes before adding HPV16 PsVs and incubating at 4° C. for one hour. After extensive washing with PBS, cells were lysed and analyzed for the content of L1, as described in FIG. 4A. (B) Semi-confluent CHO-pgsA were treated with 3 μM polyR for one hour prior to adding HPV16 PsVs. Infection was scored at 24 hours post infection as described in FIG. 1. (C) Semi-confluent CHO-pgsD cells were treated with 3 μM polyR for one hour prior to adding HPV16 PsVs. Infection was scored at 24 hours post infection as described in FIG. 1.
To test the effects of polyR on cells that differentially express heparan sulfate versus heparan sulfonated proteoglycans, like glycosaminoglycans (GAGs), genetically mutant clones of Chinese hamster ovary (CHO) cell lines were used. […] First, the effect of polyR on HPV16 PsV binding to these mutant cells was measured.

For test [3], the system named is HPV16 PsVs. In words: Internalization of cell-bound HPV16 PsV into HaCaT cells (L1 immunoblot). To be noted: HPV-bound HaCaT cells incubated 4 h. On the procedure:
FIG. 8. PolyR reduces the internalization of cell membrane-bound HPV16 PsV. HaCaT cells were incubated with HPV16 PsVs for one hour at 4° C. Unbound virus was removed from the cells by incubation with 0.25% trypsin/5 mM EDTA for 15 minutes at 37° C. Cells were pelleted and washed several times with CM (to neutralize pH) and with ice-cold PBS before adding ice-cold 0.1 M sodium acetate buffer (pH 4.5) containing 0.5 M NaCl. After a two-minute incubation on ice, cells were washed three times with PBS and lysed with RIPA [50 mM Tris (pH 7.5), 0.1% SDS, 1% sodium deoxycholate, 150 mM NaCl, 1 mM EDTA, 1% Triton X-100, 1 mM sodium vanadate, 1 mM PMSF, 10 ng/ml leupeptin, 10 ng/ml aprotinin] buffer. Immuno-blotting was performed, and the L1 protein was detected using a HPV16 L1-specific mAb (Camvir-1, sc-47699, Santa Cruz Biotechnology, Inc., Dallas, Tex.).
To investigate the effect of polyR on the penetration of cell-bound virus into host cells, HPV-bound cells were incubated for four hours in the absence or presence of polyR. […] Immuno-blotting was performed, and the L1 protein was detected using a HPV16 L1 specific mAb (Camvir-1; Santa Cruz Biotechnology, Inc., Dallas, Tex.). As HPV16 L1 is proteolytically processed during cell entry, two forms of L1 (full-length 55 kDa and the 25 kDa processed form) were detected. […]

“Also recorded” adds a separate entry of the source.

poly-L-arginine [polyR]: in the test with HPV16 PsVs [1], the “release of HPV16 from cell membrane” value is given as “did not induce the release of HPV16 from the cell membrane”. Further, the “HPV16 PsV binding” value was “did not prevent HPV binding; also recorded: increased binding was observed” in the test on HPV16 PsVs [2] (CHO pgsA-745 cells (GAG deficient)) and “did not prevent HPV binding” with HPV16 PsVs [2] (CHO pgsD-677 cells (HS deficient)). Further, in the test on HPV16 PsVs [3], the “internalized L1 forms (55 kDa full-length, 25 kDa processed)” value is “decreased levels of 55 kDa L1 protein and increased amounts of the 25 kDa proteolytic processed L1 form”. In addition, the “virus internalization rate (sum of IDVs of 55 kDa and 25 kDa L1 bands)” value in the test with HPV16 PsVs [3] was “had no effect on the virus internalization rate”.
